In ChEMBL document CHEMBL4613237, “A novel phytosterol isolated from Datura inoxia, RinoxiaB is a potential cure colon cancer agent by targeting BAX/Bcl2 pathway” (Bioorg Med Chem, 2020):
Calls of active or inactive are those of the source. The rule behind the calls is not given here.

Experiments:
HCT-15 [1] = experiment: Induction of apoptosis in human HCT15 cells assessed as increase in caspase-9 protein expression at 4 to 10 uM after 24 hrs by Western blot analysis; format: functional, cell-based
HCT-15 [2] = experiment: Induction of cell cycle arrest in human HCT15 cells assessed as accumulation of cells at G2/M phase at 10 uM after 24 hrs by propidium iodide staining based flow cytometry (reference value: 13.77%); format: functional
HCT-15 [3] = experiment: Antiproliferative activity against human HCT15 cells at 4 uM after 24 hrs by MTT assay relative to control; format: functional; settings: HCT-15, 24 h
HCT-15 [4] = experiment: Induction of apoptosis in human HCT15 cells assessed as increase in caspase-3 protein expression at 4 to 10 uM after 24 hrs by Western blot analysis; format: functional, cell-based
HCT-15 [5] = experiment: Induction of DNA damage in human HCT15 cells assessed as head DNA at 4 uM by neutral comet assay relative to control (reference value: 99.27%); format: functional
HCT-15 [6] = experiment: Induction of morphological changes in human HCT15 cells assessed as formation of spherical bodies at 4 to 10 uM after 24 hrs by inverted light microscopic analysis; format: functional, cell-based
HCT-15 [7] = experiment: Induction of morphological changes in human HCT15 cells assessed as membrane blebbing at 4 to 10 uM after 24 hrs by inverted light microscopic analysis; format: functional, cell-based
HCT-15 [8] = experiment: Induction of apoptosis in human HCT15 cells assessed as increase in cytochrome c protein expression at 4 to 10 uM after 24 hrs by Western blot analysis; format: functional, cell-based
HCT-15 [9] = experiment: Induction of apoptosis in human HCT15 cells assessed as reduction in bcl-2 protein expression at 4 to 10 uM after 24 hrs by Western blot analysis; format: functional, cell-based
HCT-15 [10] = experiment: Induction of cell cycle arrest in human HCT15 cells assessed as accumulation of cells at S phase at 10 uM after 24 hrs by propidium iodide staining based flow cytometry (reference value: 8.73%); format: functional
HCT-15 [11] = experiment: Induction of cell cycle arrest in human HCT15 cells assessed as accumulation of cells at G2/M phase at 4 uM after 24 hrs by propidium iodide staining based flow cytometry (reference value: 13.77%); format: functional
HCT-15 [12] = experiment: Induction of apoptosis in human HCT15 cells assessed as necrotic cells at 10 uM after 24 hrs by annexin V-FITC and propidium iodide staining based flow cytometry (reference value: 0.07%); format: functional
HCT-15 [13] = experiment: Induction of nuclear morphological changes in human HCT15 cells assessed as increase in propidium iodide positive cells at 4 to 10 uM after 24 hrs by PI-staining based fluorescence microscopic analysis; format: functional, cell-based
HCT-15 [14] = experiment: Induction of apoptosis in human HCT15 cells assessed as upregulation of p53 protein expression after 24 hrs by Western blot analysis; format: functional, cell-based
HCT-15 [15] = experiment: Induction of DNA damage in human HCT15 cells assessed as tail moment at 4 uM by neutral comet assay (reference value: 0.02); format: functional
HCT-15 [16] = experiment: Induction of apoptosis in human HCT15 cells assessed as upregulation of p21 protein expression after 24 hrs by Western blot analysis; format: functional, cell-based
HCT-15 [17] = experiment: Induction of DNA damage in human HCT15 cells assessed as comet length at 4 uM by neutral comet assay (reference value: 57 pixel); format: functional
HCT-15 [18] = experiment: Induction of apoptosis in human HCT15 cells assessed as early apoptotic cells at 10 uM after 24 hrs by annexin V-FITC and propidium iodide staining based flow cytometry (reference value: 0%); format: functional
HCT-15 [19] = experiment: Induction of morphological changes in human HCT15 cells assessed as cell shrinkage after 24 hrs by inverted light microscopic analysis; format: functional, cell-based
HCT-15 [20] = experiment: Induction of DNA damage in human HCT15 cells assessed as tail moment at 10 uM by neutral comet assay (reference value: 0.02); format: functional
HCT-15 [21] = experiment: Induction of apoptosis in human HCT15 cells assessed as viable cells at 10 uM after 24 hrs by annexin V-FITC and propidium iodide staining based flow cytometry (reference value: 99.93%); format: functional; settings: HCT-15, 24 h, read-out: Activity
HCT-15 [22] = experiment: Antiproliferative activity against human HCT15 cells assessed as reduction in cell viability after 24 hrs by MTT assay; format: functional, cell-based
HCT-15 [23] = experiment: Induction of DNA damage in human HCT15 cells assessed as tail length at 4 uM by neutral comet assay (reference value: 4 pixel); format: functional
HCT-15 [24] = experiment: Induction of cell cycle arrest in human HCT15 cells assessed as accumulation of cells at G0/G1 phase at 10 uM after 24 hrs by propidium iodide staining based flow cytometry (reference value: 77.48%); format: functional
HCT-15 [25] = experiment: Induction of DNA damage in human HCT15 cells assessed as olive tail moment at 10 uM by neutral comet assay (reference value: 0.19); format: functional
HCT-15 [26] = experiment: Downregulation of cyclin D1 expression in human HCT15 cells at 4 to 10 uM after 24 hrs by Western blot anlaysis; format: functional, cell-based
HCT-15 [27] = experiment: Induction of cell cycle arrest in human HCT15 cells assessed as accumulation of cells at S phase at 4 uM after 24 hrs by propidium iodide staining based flow cytometry (reference value: 8.73%); format: functional
HCT-15 [28] = experiment: Induction of DNA damage in human HCT15 cells assessed as tail DNA at 4 uM by neutral comet assay relative to control (reference value: 0.72%); format: functional
HCT-15 [29] = experiment: Induction of apoptosis in human HCT15 cells assessed as viable cells at 4 uM after 24 hrs by annexin V-FITC and propidium iodide staining based flow cytometry (reference value: 99.93%); format: functional; settings: HCT-15, 24 h, read-out: Activity
HCT-15 [30] = experiment: Downregulation of cyclin B1 expression in human HCT15 cells at 4 to 10 uM after 24 hrs by Western blot anlaysis; format: functional, cell-based
HCT-15 [31] = experiment: Induction of apoptosis in human HCT15 cells assessed as late apoptotic cells at 4 uM after 24 hrs by annexin V-FITC and propidium iodide staining based flow cytometry (reference value: 0%); format: functional
HCT-15 [32] = experiment: Induction of DNA damage in human HCT15 cells assessed as tail length at 10 uM by neutral comet assay (reference value: 4 pixel); format: functional
HCT-15 [33] = experiment: Induction of DNA damage in human HCT15 cells assessed as tail DNA at 10 uM by neutral comet assay relative to control (reference value: 0.72%); format: functional
HCT-15 [34] = experiment: Induction of apoptosis in human HCT15 cells assessed as necrotic cells at 4 uM after 24 hrs by annexin V-FITC and propidium iodide staining based flow cytometry (reference value: 0.07%); format: functional
HCT-15 [35] = experiment: Induction of DNA damage in human HCT15 cells assessed as head length at 4 uM by neutral comet assay (reference value: 53 pixel); format: functional
HCT-15 [36] = experiment: Induction of DNA damage in human HCT15 cells assessed as head length at 10 uM by neutral comet assay (reference value: 53 pixel); format: functional
HCT-15 [37] = experiment: Induction of apoptosis in human HCT15 cells assessed as early apoptotic cells at 4 uM after 24 hrs by annexin V-FITC and propidium iodide staining based flow cytometry (reference value: 0%); format: functional
HCT-15 [38] = experiment: Induction of DNA damage in human HCT15 cells assessed as comet length at 10 uM by neutral comet assay (reference value: 57 pixel); format: functional
HCT-15 [39] = experiment: Induction of DNA damage in human HCT15 cells assessed as olive tail moment at 4 uM by neutral comet assay (reference value: 0.19); format: functional
HCT-15 [40] = experiment: Induction of cell cycle arrest in human HCT15 cells assessed as accumulation of cells at G0/G1 phase at 4 uM after 24 hrs by propidium iodide staining based flow cytometry (reference value: 77.48%); format: functional
HCT-15 [41] = experiment: Induction of morphological changes in human HCT15 cells assessed as lack of colony forming ability at 4 to 10 uM after 24 hrs by inverted light microscopic analysis; format: functional, cell-based
HCT-15 [42] = experiment: Induction of DNA damage in human HCT15 cells assessed as head DNA at 10 uM by neutral comet assay relative to control (reference value: 99.27%); format: functional
HCT-15 [43] = experiment: Induction of apoptosis in human HCT15 cells assessed as late apoptotic cells at 10 uM after 24 hrs by annexin V-FITC and propidium iodide staining based flow cytometry (reference value: 0%); format: functional
HCT-15 [44] = experiment: Induction of apoptosis in human HCT15 cells assessed as increase in bax protein expression at 4 to 10 uM after 24 hrs by Western blot analysis; format: functional, cell-based

## C[C@H]1C(=O)O[C@H]2C[C@]1(C)OC[C@H]2[C@H]1CC[C@H]2[C@@H]3CC=C4CC=CC(=O)[C@]4(C)[C@H]3CC[C@]12C
HCT-15 [1]
  Activity: Active
HCT-15 [2]
  Activity: 21.57%
HCT-15 [3]
  inhibition at 4 µM: 50.7%
HCT-15 [4]
  Activity: Active
HCT-15 [5]
  Activity: 54.72%
HCT-15 [6]
  Activity: Active
HCT-15 [7]
  Activity: Active
HCT-15 [8]
  Activity: Active
HCT-15 [9]
  Activity: Active
HCT-15 [10]
  Activity: 16.46%
HCT-15 [11]
  Activity: 19.67%
HCT-15 [12]
  Activity: 2.57%
HCT-15 [13]
  Activity: Active
HCT-15 [14]
  Activity: Dose-dependent effect
HCT-15 [15]
  Activity: 5.43
HCT-15 [16]
  Activity: Dose-dependent effect
HCT-15 [17]
  Activity: 35 pixel
HCT-15 [18]
  Activity: 19.48%
HCT-15 [19]
  Activity: Dose-dependent effect
HCT-15 [20]
  Activity: 11.12
HCT-15 [21]
  viability at 10 µM: 14.7%
HCT-15 [22]
  inhibition: Dose-dependent effect
HCT-15 [22]; HCT-15, 24 h
  IC50: 4 µM
HCT-15 [23]
  Activity: 12 pixel
HCT-15 [24]
  Activity: 61.24%
HCT-15 [25]
  Activity: 8.56
HCT-15 [26]
  inhibition: Active
HCT-15 [27]
  Activity: 13.34%
HCT-15 [28]
  Activity: 45.27%
HCT-15 [29]
  viability at 4 µM: 21.9%
HCT-15 [30]
  inhibition: Active
HCT-15 [31]
  Activity: 58.17%
HCT-15 [32]
  Activity: 17 pixel
HCT-15 [33]
  Activity: 65.45%
HCT-15 [34]
  Activity: 2.1%
HCT-15 [35]
  Activity: 23 pixel
HCT-15 [36]
  Activity: 19 pixel
HCT-15 [37]
  Activity: 17.79%
HCT-15 [38]
  Activity: 36 pixel
HCT-15 [39]
  Activity: 5.56
HCT-15 [40]
  Activity: 66.97%
HCT-15 [41]
  Activity: Active
HCT-15 [42]
  Activity: 34.54%
HCT-15 [43]
  Activity: 63.26%
HCT-15 [44]
  Activity: Active
